Source: patent US6653081B2, “Methods for monitoring antiretroviral therapy and guiding therapeutic decision in the treatment of HIV/AIDS” (ViroLogic, Inc., priority 2000, dated 2003)
Values joined by “and” are separate entries in the source; they are usually repeats but may differ in a detail not shown here. Identical values can stand only once.

Experiments:
Y181C/M230L-RTV = test: Phenotypic susceptibility assay, Y181C/M230L-RTV; type: cell-based, HIV-1; settings: site-directed Y181C + M230L
RTV-010829/270I = test: Phenotypic susceptibility assay, RTV-010829/270I; type: cell-based, HIV; settings: RTV-010829 with I270M reverted
From the text: (§1) The resistance test vectors containing a functional luciferase gene cassette were constructed and host cells were transfected with the resistance test vector DNA. The resistant test vectors contained patient-derived reverse transcriptase and protease sequences that were either susceptible or resistant to the antiretroviral agents, such as nucleoside reverse transcriptase inhibitors, (NRTIs) non-nucleoside reverse transcriptase inhibitors […] protease inhibitors. The resistance test vector viral particles produced by transfecting the resistance test vector DNA into host cells, either in the presence or absence of PRIs, were used to infect target host cells grown either in the absence of NRTIs or NNRTIs, or in the presence of increasing concentrations of the drug. The amount of luciferase activity produced in infected target host cells in the presence of varying concentrations of drug was compared to the amount of luciferase produced in infected target host cells in the absence of drug. “Drug resistance” was measured as the amount of drug required to inhibit by 50% the luciferase activity detected in the absence of drug (inhibitory concentration 50%, IC50). The IC50 values were determined by plotting percent drug inhibition vs. log10 drug concentration. Stimulation of viral replication was measured as the percent increase in luciferase activity detected when infection occurs in the presence of drug as compared to in the absence of drug.
(§2) Host cells were seeded in 10-cm-diameter dishes and were transfected several days after plating with resistance test vector plasmid DNA and the envelope expression vector. Transfections were performed using a calcium-phosphate precipitation procedure. The cell culture media containing the DNA precipitate was replaced with fresh medium, from one to 24 hours, after transfection. Cell culture media containing resistance test vector viral particles was harvested one to four days after transfection and was passed through a […] filter before being used to infect target host cells, or being stored at −80° C. HIV capsid protein (p24) levels in the harvested cell culture media were determined by an EIA method as described by the manufacturer (SAIC; Frederick, Md.). Before infection, target cells (293 and 293/T) were plated in cell culture media. Control infections were performed using cell culture media from mock transfections (no DNA) or transfections containing the resistance test vector plasmid DNA without the envelope expression plasmid. One to three or more days after infection, the media was removed and cell lysis buffer (Promega) was added to each well. Cell lysates were assayed for luciferase activity (FIG. 3). The inhibitory effect of the drug was determined using the following equation:
(§3) % luciferase inhibition=1−(RLUluc[drug]÷RLUluc)×100
(§4) where RLUluc [drug] is the Relative Light Unit of luciferase activity in infected cells in the presence of drug, and RLUluc is the Relative Light Unit of luciferase activity in infected cells in the absence of drug. IC50values were obtained from the sigmoidal curves that were generated from the data by plotting the percent inhibition of luciferase activity vs. the log10 drug concentration. The percent luciferase stimulation is the negative of the % inhibition calculated using the formula above.
A resistance test vector containing all of the mutations present in RTV-010829 except for the V245E mutation (RTV-010829/245V) was constructed and tested using the phenotypic assay described earlier. The results were compared to those determined using the parent RTV-010829. We determined the pattern of phenotypic susceptibility to the NNRTIs, delavirdine, nevirapine and efavirenz, in the reverted vector RTV-010829/245V. […] A resistance test vector containing all of the mutations present in RTV-010829 except for the I270M (RTV-010829/270I) was constructed and tested using the phenotypic assay described earlier. […]

RTV-1033-3/184V = test: Phenotypic susceptibility assay, RTV-1033-3/184V; type: cell-based, HIV; settings: RTV-1033-3 plus M184V
From the text: as §1, §2, §3, §4
(§5) A resistance test vector containing all of the mutations present in RTV-1033-3 in addition to M184V (RTV-1033-3/184V) was constructed and tested using the phenotypic assay described earlier. The results were compared to those determined using the parent RTV-1033-3. We determined the pattern of phenotypic susceptibility to the NNRTIs, delavirdine, nevirapine and efavirenz, in the mutated vector, RTV-1033-3/184V.

RTV-007130 = test: Phenotypic susceptibility assay, RTV-007130; type: cell-based, HIV; settings: patient 007130; for decrease in susceptibility: 245 with multiple other mutations
From the text: as §1, §2, §3, §4
(§6) A resistance test vector was constructed as described in Example 1 from a virus sample obtained from patient 007130. The prior and current treatment regimens are unknown. Isolation of viral RNA and RT/PCR was used to generate a patient derived segment (PDS) that comprised viral sequences coding for all of PR and aa 1-313 of RT. The PDS were inserted into an indicator gene viral vector to generate a resistance test vector designated RTV-007130. RTV-007130 was then tested in a phenotypic assay to determine accurately and quantitatively the level of susceptibility to a panel of anti-retroviral drugs. […]

RTV-I135T/V245E = test: Phenotypic susceptibility assay, RTV-I135T/V245E; type: cell-based, HIV-1; settings: site-directed I135T + V245E
From the text: as §1, §2, §3, §4
A resistance test vector containing two mutations, I135T and V245E (RTV-I135T/V245E) was constructed and tested in the phenotypic assay described earlier. The results were compared to those determined using a genetically defined resistance test vector that was wild type at positions 135 and 245. We determined the pattern of phenotypic susceptibility to the NNRTIs, delavirdine, nevirapine and efavirenz, in RTV-I135T/V245E.

[1] = system: RTV-1033-3/283L/284R/286T; test: Phenotypic susceptibility assay, RTV-1033-3/283L/284R/286T; type: cell-based, HIV; settings: RTV-1033-3 with L283I, R284K and T286A reverted
From the text: as §1, §2, §3, §4
as §5, with “except for L283I, R284K and T286A (RTV-1033-3/283L/284R/286T)” for “in addition to M184V (RTV-1033-3/184V)”, “reverted” for “mutated”, “RTV-1033-3/283L/284R/286T.” for “RTV-1033-3/184V.”

RTV-013522 = test: Phenotypic susceptibility assay, RTV-013522; type: cell-based, HIV; settings: patient 013522; for decrease in susceptibility: K103N, I135T, I270S
From the text: as §1, §2, §3, §4
as §6, with “013522.” for “007130.”, “RT from all three samples.” for “RT.”, “RTV-013522. RTV-013522” for “RTV-007130. RTV-007130”

| SMILES | drug-dependent stimulation of viral replication (Y181C/M230L-RTV) | reduction in susceptibility compared to wild type control RTV (Y181C/M230L-RTV) | drug-dependent stimulation of viral replication (RTV-010829/270I) | reductions in susceptibility compared to wild type control RTV (RTV-010829/270I) | drug-dependent stimulation of viral replication (RTV-1033-3/184V) | reduction in susceptibility compared to wild type control RTV (RTV-1033-3/184V) | drug-dependent stimulation of viral replication (RTV-007130) | decrease in susceptibility (RTV-007130) | drug-dependent stimulation of viral replication (RTV-I135T/V245E) | reductions in susceptibility compared to wild type control RTV (RTV-I135T/V245E) | drug-dependent stimulation of viral replication [1] | reductions in susceptibility compared to wild type control RTV [1] | drug-dependent stimulation of viral replication (RTV-013522) | decrease in susceptibility (RTV-013522) |
| --- | --- | --- | --- | --- | --- | --- | --- | --- | --- | --- | --- | --- | --- | --- |
| O=C1Nc2ccc(Cl)cc2[C@@](C#CC2CC2)(C(F)(F)F)O1 [efavirenz] | no drug-dependent stimulation | 25 fold | ~20% | 145 fold | ~80% | 28 fold | ~40% | > 450 fold | no drug-dependent stimulation | 2 fold | ~30% | 85 fold | ~100% | > 450 fold |
| CC(C)Nc1cccnc1N1CCN(C(=O)c2cc3cc(NS(C)(=O)=O)ccc3[nH]2)CC1 [delavirdine] | no drug-dependent stimulation | > 250 fold | ~40% | 247 fold | ~100% | 5 fold | ~30% | > 250 fold | no drug-dependent stimulation | 2 fold | ~40% | 7 fold | ~110% | > 250 fold |
| Cc1ccnc2c1NC(=O)c1cccnc1N2C1CC1 [nevirapine] | no drug-dependent stimulation | > 600 fold and > 800 fold | ~30% | 341 fold | ~100% | > 600 fold | ~50% | > 600 fold | no drug-dependent stimulation | 2.5 fold | ~80% | > 600 fold | ~90% | > 600 fold |
